Data: US6756401B2, “Compositions and methods for treating osteoporosis and lowering cholesterol” (Pfizer Inc., priority 2000, dated 2004)

Legend:
OVX rats [1] = assay: Ovariectomized rat model: femur BMD by dual-energy X-ray absorptiometry; assay type: in vivo; conditions: 4 weeks
From the text: (§1) In women, estrogen deficiency during the menopause results in increased bone turnover leading to bone loss. Ovariectomy in rats produces estrogen deficiency and increased bone turnover leading to trabecular bone loss similar to that observed in post-menopausal women (Kalu, D. N., Bone and Mineral 1991 ;15:175; Frost, H. M., Jee W. S. S., Bone and Mineral 1992;18:227; Wronski, T. J., Yen, C-F, Cells Materials 1991;(suppl. 1):69). The OVX rat is thus an appropriate model to evaluate compounds for the prevention and treatment of post-menopausal osteoporosis. The ability of PPTN to inhibit estrogen deficiency bone loss was assessed in 5-month-old OVX rats, since ovariectomy causes significant bone loss in the lumbar vertebrae, proximal tibia, and distal femoral metaphyses (Ke, H. Z., et al., Endocrin 1995;136:2435; Chen, H. K., et al., J Bone Miner Res 1995;10:1256).
(§2) Five-month-old OVX female rats were treated with PPTN at oral doses of 0.733, 7.33, 73.3, and 733 μg/kg/day, or 17α-ethynyl estradiol (EE) at 30 μg/kg/day (10 rats per subgroup) daily for 4 weeks. The oral treatment began 1 day after surgery. Groups of vehicle-treated sham rats (n=10) and vehicle-treated OVX rats (n=10) served as controls. Calcein at 10 mg/kg was injected s.c. to all rats 12 and 2 days before necropsy as a fluorochrome bone marker to measure bone dynamic histomorphometric parameters. The effects of PPTN on the following end points were determined: (a) serum osteocalcin, a biochemical marker of bone turnover, (b) bone mineral density of lumbar vertebrae and distal femoral metaphyses, (c) bone histomorphometry of fifth lumbar vertebral body and proximal tibial metaphyses.
Using dual-energy X-ray absorptiometry, the right femur of each rat was scanned ex vivo. Bone mineral density (BMD) of the distal femoral metaphyses (second 0.5 cm from the distal end of femur) and the proximal femur (the first 0.5 cm from the proximal end of femur, which contains the femoral head, neck, and greater trochanter) was determined.

OVX rats [2] = assay: Ovariectomized rat model: bone histomorphometry of fifth lumbar vertebral body; assay type: in vivo; conditions: 4 weeks
From the text: as §1, §2
In order to understand the cellular mechanism of bone-protective effects of PPTN at the tissue level, bone histomorphometric methods were used to determine the effects of PPTN on cancellous bone of the fifth lumbar vertebral body in OVX rats. Ovariectomy caused significant decreases in trabecular bone volume (trabecular bone area divided by marrow space area, expressed as percent) and trabecular number, and a significant increase in trabecular separation of the fifth lumbar vertebral body.

OVX rats [3] = assay: Ovariectomized rat model: lumbar vertebrae BMD by dual-energy X-ray absorptiometry; assay type: in vivo; conditions: 4 weeks
From the text: as §1, §2
The first to the sixth lumbar vertebrae from each rat were removed during necropsy. These were then scanned ex vivo using dual-energy X-ray absorptiometry. The scan images were analyzed, and bone area, bone mineral content (BMC), and bone mineral density (BMD) of whole lumbar vertebrae (WLV), and LV1 through LV6 were determined. […] The changes in BMC were similar to those observed in BMD. […]

OVX rats [4] = assay: Ovariectomized rat model: serum osteocalcin by radioimmunoassay; assay type: in vivo; conditions: daily for 4 weeks
From the text: as §1
Five-month-old OVX female rats were treated with PPTN at oral doses of 0.733, 7.33, 73.3, and 733 μg/kg/day, or 17α-ethynyl estradiol (EE) at 30 μg/kg/day (10 rats per subgroup) daily for 4 weeks. […] The effects of PPTN on the following end points were determined: (a) serum osteocalcin, a biochemical marker of bone turnover, (b) bone mineral density of lumbar vertebrae and distal femoral metaphyses, (c) bone histomorphometry of fifth lumbar vertebral body and proximal tibial metaphyses. […]

OVX rats [5] = assay: Ovariectomized rat model: histomorphometry of proximal tibial metaphyses; assay type: in vivo; conditions: 4 weeks
From the text: as §1, §2
In order to determine the effect of PPTN on long bone metaphyses, histomorphometric analyses were performed on the proximal tibiae.

MDA-MB-231 cells = assay: Inhibition of in vitro human breast tumor cell growth, ER-negative cells; assay type: cell-based; conditions: MDA-MB-231 (ER-negative), 6 days incubation, direct cell counts
Protocol: The in vitro antiproliferative effects of (−)-cis-6-phenyl-5-[4-(2-pyrrolidin-1-yl-ethoxy)-phenyl]-5,6,7,8-tetrahydro-naphthalene-2-ol (PPTN) were tested using two types of human breast cancer cell lines: first, MCF-7 cells, which contain ER as well as progesterone receptors (PgR), and second, MDA-MB-231 cells, which lack ER and PgR, and enable the determination of an effect that is independent of the ER mechanism. The effect of PPTN on the growth of these different cell lines was determined by incubation of the cells with various compound concentrations for 6 days.
The antiproliferative effects were then determined by direct cell counts. PPTN inhibited the growth of the ER-positive cell line MCF-7.

[6] = PPTN at doses ≧7.33 μg/kg/day oral
[7] = PPTN at 7.33, 73.3, or 733 μg/kg/day oral

Compound: Oc1ccc2c(c1)CC[C@H](c1ccccc1)[C@@H]2c1ccc(OCCN2CCCC2)cc1 [PPTN, (−)-cis-6-phenyl-5-[4-(2-pyrrolidin-1-yl-ethoxy)-phenyl]-5,6,7,8-tetrahydro-naphthalene-2-ol]
- BMD of distal femoral metaphyses and proximal femur (OVX rats [1]; PPTN at 0.733 or 7.33 μg/kg/day oral): did not differ from OVX controls
- decreases in BMD of distal femoral metaphyses and proximal femur (OVX rats [1]; PPTN at both 73.3 and 733 μg/kg/day oral): completely prevented the decreases
- ED50 in preserving lumbar vertebral cancellous bone mass and structure (OVX rats [2]; OVX rats, oral, lumbar vertebrae): less than 0.733 μg/kg/day
- bone loss in lumbar vertebrae (OVX rats [2]; PPTN at 0.733 μg/kg/day oral): completely prevented bone loss
- trabecular number of fifth lumbar vertebral body compared with sham controls (OVX rats [2]; PPTN at 73.3 or 733 μg/kg/day oral): significantly increased
- bone turnover rate, lumbar vertebral body (OVX rats [2]; PPTN at all dose levels, oral): did not differ from sham controls
- ovariectomy-induced increase in bone formation rate (BFR) (OVX rats [2]; PPTN at all dose levels, oral): inhibited this increase
- percent eroded surface (index of osteoclastic bone resorption) compared with sham controls (OVX rats [2]; PPTN at all dose levels, oral): significantly decreased
- ovariectomy-induced changes in trabecular bone volume, trabecular number and trabecular separation of fifth lumbar vertebral body (OVX rats [2]; all doses of PPTN (0.733 to 733 μg/kg/day oral)): completely prevented
- lumbar vertebral BMD compared with both sham and OVX controls (OVX rats [3]; PPTN 73.3 μg/kg/day oral): increased significantly
- decrease in lumbar vertebral BMD after ovariectomy (OVX rats [3]; PPTN at all dose levels (0.733 to 733 μg/kg/day oral)): completely prevented the decrease
- increase in serum osteocalcin concentration after ovariectomy (OVX rats [4]; [6]): completely prevented
- percent osteoclast surface compared with OVX controls (OVX rats [5]; PPTN at 0.733 μg/kg/day oral): decreased significantly
- prevention of bone loss in proximal tibiae (OVX rats [5]; PPTN at 0.733 μg/kg/day oral): failed to do so
- proximal tibial trabecular bone volume (OVX rats [5]; PPTN at 0.733 μg/kg/day oral): no significant effect
- osteoclast number per millimeter of bone surface compared with both sham and OVX controls (OVX rats [5]; [7]): significantly decreased
- percent osteoclast surface compared with both sham and OVX controls (OVX rats [5]; [7]): significantly decreased
- bone turnover rate in proximal tibial trabecular bone (OVX rats [5]; PPTN at doses of 7.33 to 733 μg/kg/day oral): did not differ from sham controls
- proximal tibial trabecular bone volume compared with OVX controls (OVX rats [5]; [6]): significantly greater
- inhibition of cell proliferation (MDA-MB-231 cells): did not inhibit cell proliferation

Compound: C#C[C@]1(O)CC[C@H]2[C@@H]3CCc4cc(O)ccc4[C@H]3CC[C@@]21C [EE, 17α-ethynyl estradiol, reference compound]
- decrease in BMD of distal femoral metaphyses after ovariectomy (OVX rats [1]; EE 30 μg/kg/day oral): prevented the decrease
- proximal femoral BMD (OVX rats [1]; EE 30 μg/kg/day oral): had no effect
- bone turnover rate, lumbar vertebral body (OVX rats [2]; EE 30 μg/kg/day oral): did not differ from sham controls
- ovariectomy-induced changes in trabecular bone volume, trabecular number and trabecular separation of fifth lumbar vertebral body (OVX rats [2]; EE 30 μg/kg/day oral): completely prevented
- ovariectomy-induced increase in bone formation rate (BFR) (OVX rats [2]; EE 30 μg/kg/day oral): inhibited this increase
- percent eroded surface (index of osteoclastic bone resorption) compared with sham controls (OVX rats [2]; EE 30 μg/kg/day oral): significantly decreased
- trabecular number of fifth lumbar vertebral body compared with sham controls (OVX rats [2]; EE 30 μg/kg/day oral): significantly increased
- decrease in lumbar vertebral BMD after ovariectomy (OVX rats [3]; EE 30 μg/kg/day oral): completely prevented the decrease
- increase in serum osteocalcin concentration after ovariectomy (OVX rats [4]; EE 30 μg/kg/day oral): completely prevented
- bone turnover rate in proximal tibial trabecular bone (OVX rats [5]; EE 30 μg/kg/day oral): did not differ from sham controls
- osteoclast number per millimeter of bone surface compared with both sham and OVX controls (OVX rats [5]; EE 30 μg/kg/day oral): significantly decreased
- percent osteoclast surface compared with both sham and OVX controls (OVX rats [5]; EE 30 μg/kg/day oral): significantly decreased
